According to patent US20170269060A1, “Assays and Compounds to Treat Kidney Diseases” (Rush University Medical Center, priority 2014, published 2017):

Assays:
C57BL/6J mice = assay: LPS-induced proteinuria in mice; type: in vivo, mouse
Description: The induction of proteinuria in female wild type C57BL/6J mice (n=6-13 per group) by LPS injection was performed as described. (Reiser et al., J Clin Invest, 2004; Yanagida-Asanuma et al., The American Journal of Pathology, 2007; Faul et al., Nat Med, 2008; Yu et al., The New England Journal of Medicine, 2013.) Briefly, 10 week old female mice were intraperitoneally injected with LPS (10 mg/kg, in saline). Control mice were injected with saline alone. Animals in the treatment groups were treated with vehicle or 10 mg/kg pyr (stock in DMSO) diluted in saline 2 h prior to the administration of LPS. Spot urine was collected from each group of animals for measurement of albuminuria as mg albumin per mg creatinine. (Faul et al., Nat Med, 2008) Results are expressed as mean±SEM. The mice were sacrificed and the efficacy of pyrintegrin was further analyzed by histochemical and immunofluorescence analyses.
For light microscopy, freshly harvested mouse kidney tissue was embedded in OCT, snap frozen in liquid nitrogen and stored at −80° C. Tissue sections were cut and fixed in −20° C. acetone before immunofluorescence staining. Sections were blocked at room temperature for 1 h and incubated with the primary antibodies against total β1 integrin (hamster anti-mouse, BioLegend), active β1 integrin (Lentner et al., PNAS, 1993.) (rat anti-mouse antibody 9EG7, BD Biosciences) and synaptopodin (polyclonal goat, SC-21537, Santa Cruz) at 4° C. overnight. Slides were incubated with appropriate fluorescently labeled secondary antibodies (Life Technologies, CA) and mounted with DAPI containing mounting solution (Vector Laboratories, Burlingame, Calif.). Fluorescence images were acquired using a Zeiss 700 LSM confocal microscope with a 20× objective and analyzed using the Zen software (Carl Zeiss Group, Hartford, Conn.). For transmission electron microscopy (TEM), tissues were fixed, embedded, sectioned, and stained as previously described. Nature Medicine, 2008.) Images were acquired using Zeiss SIGMA HD VP electron microscope. […]

murine podocytes = assay: Podocyte HCS phenotypic assay, PAN-induced podocyte injury; type: cell-based
Description: Conditionally immortalized human and murine podocytes were used in a majority of the assays. Human and murine podocytes were cultured as have been described previously (Saleem et al., JASN 13, 630-638 (2002); Mundel, Reiser et al., Experimental Cell Research, 236, p 248 (1997)). For example, murine podocytes derived from the mouse line H-2Kb-tsA58 were cultured under permissive conditions at 33° C. on rat-tail collagen coated dishes in RPMI medium supplemented with 10% heat inactivated FBS, penicillin and streptomycin (100 U/ml), and 10 U/ml recombinant mouse γ-interferon. Cells were then trypsinized and re-plated for differentiation at 37° C. in medium without γ-interferon. The cells were differentiated for 0 to 7 days and then reseeded to rat-tail collagen coated multi-well plates at a density of 1500/well or 500/well for 96 and 384 well plates, respectively. Cells were then further differentiated for another 5-14 days in the multi-well plates for subsequent experimentation with various reagents prior to fixation and analyses.
In some embodiments, podocytes were cultured at 37° C. for the first 7 days of differentiation in large tissue culture flasks and subsequently reseeded and further cultured at 37° C. in the 96-well assay plates for the next 4-6 days to provide low well-to-well variability in cell number in the assay plates and healthy podocytes expressing specific and well characterized podocyte markers synaptopodin and podocin.
Differentiated podocytes were cultured in 96-well or 384-well multiwall optical plates (PerkinElmer, Boston, Mass.). In some embodiments, differentiated podocytes were treated with various amounts of puromycin aminonucleoside (PAN), […] LPS, Adriamycin and other agents. In some embodiments, the cells were co-treated with chemical and other agents (such as mizouribine) to prevent damage from damaging agents (such as PAN). In other embodiments, the rescue agents were added 0-48 h after the addition of injury causing agents. In some embodiments, patient samples such as blood, serum, urine or other samples were added to differentiated podocytes to identify disease causing agents. In some embodiments, primary, differentiated patient podocytes were cultured to identify defects in structure and/or function.
After culturing for the appropriate time and treatment or control, cultured podocytes in multi-well optical plates were rinsed with phosphate buffered saline (PBS) and subsequently fixed using a solution of paraformaldehyde and sucrose in PBS (at a final concentration of 4% paraformaldehyde and 2% sucrose in PBS) for 30 min at room temperature. Following fixation, the cells were permeabilization using a solution of 0.3% Triton X-100 in PBS for 15 min at room temperature. For visualization of filamentous-actin (F-Actin) in cells, cells were stained with a solution of Alexa fluor 568 phalloidin (Invitrogen), as previously described. HCS CellMask Blue (Invitrogen) was used as a fluorescent stain for visualizing nuclei, cytoplasm and the individual cell boundaries. Additional proteins that were fluorescently labeled and analyzed using appropriate primary mAbs include synaptopodin (synpo, primary mAb from Santa Cruz), Paxillin (primary mAb clone Y113 from Millipore) for quantitation of focal adhesions, beta1 integrin, podocin, WT1 nephrin, CD2-AP may also be used. Other proteins may also be used for labeling. Appropriate secondary antibodies (fluorescently labeled) were used for fluorescent visualizations. High throughput confocal microscopy was done using the Opera LX (Perkin Elmer) with filters and exposure times according to manufacturer's instructions and as described before. Images were used in subsequent image analysis for quantitation of a variety of cellular parameters. Assays were performed in replicate wells for assay robustness.
Images for each frame of each well in multiple fluorescent channels were acquired using OPERA imaging system. […]

Question: `O=S(=O)(NCC1CC1)c1ccc(Nc2nccc(N3CCCc4cc(O)ccc43)n2)cc1` [Pyrintegrin] was tested. Which “proteinuria, albumin per creatinine in urine” value (C57BL/6J mice; C57BL/6 mice, LPS 10 mg/kg i.p., pyrintegrin 10 mg/kg, 24 hours) did it give?
Answer: The value was 0.668±0.074 mg albumin per 1 mg creatinine.

Question: And the “active β1 integrin levels in glomeruli (antibody 9EG7)” value (C57BL/6J mice; mice, 24 hours after LPS, confocal microscopy)?
Answer: The value was “significant protection of the active β1 levels”.

Question: What about the “protection from LPS-induced podocyte FP effacement” value (C57BL/6J mice; mice, pyrintegrin 10 mg/kg, electron microscopy) of the same compound?
Answer: The value was “significant protection”.

Question: What about the “prevention of PAN induced injury, dose-response of percent damaged cells (FIG. 4A-4P)” value (murine podocytes; 30 ug/ml PAN, co-treatment, multi-parameter algorithm) of the same compound?
Answer: The value was “prevented PAN induced injury”.

Question: What about the EC50 (murine podocytes; PAN 16 μg/ml, 48 hours, F-actin fibers per cell (FIG. 8), read-out: apparent half-maximal effective concentration (EC50), protection from PAN-induced damage) of the same compound?
Answer: The EC50 was 800 nM.

Question: And the “dose-dependent protection of podocytes from PAN-induced injury” value (murine podocytes; PAN 16-30 μg/ml, 48 hours, F-actin fibers and other parameters)?
Answer: The value was “dose dependently protected”.

Question: What about the “loss of actin stress fibers and focal adhesion complexes on PAN-induced injury” value (murine podocytes; PAN cotreatment (FIG. 9B)) of the same compound?
Answer: Its value is “protected podocytes from the loss of actin stress fibers and focal adhesion complexes”.

Question: What about the “actin stress fibers in healthy cells” value (murine podocytes; healthy cells, no PAN) of the same compound?
Answer: The value was “small but significant increase in actin stress fibers”.
